From patent US20080103209A1, “Compounds And Methods For Treating Non-Inflammatory Pain Using Ppar Alpha Agonists” (The Regents of The University of California, priority 2004, published 2008)

Experiments:
[1] = system: mice; assay: Formalin-evoked pain behavior (hind paw licking); type: in vivo, mouse; details: for effect of CB2 antagonist on antinociceptive effect of GW7647: GW7647 50 μg i.pl.; for effect of CB2 antagonist on antinociceptive effect of GW7647 / effect of CB2 antagonist on antinociceptive effect of PEA: AM630 2 mg-kg^−1 i.p.; for effect of CB2 antagonist on antinociceptive effect of PEA: PEA 50 μg i.pl.; for phase I and II formalin pain in wild-type mice: wild-type C57BL6 mice
Experimental: Administration of formalin into the mouse hind paw evokes a pain behavior consisting of two temporally distinct phases of licking and flexing of the injected limb (Dubuisson, et al., Pain 4, 161-74 (1977)). The first phase, which starts immediately after formalin injection and lasts 5-10 min, is due to activation of nociceptive fibers and is accompanied by the local release of nitric oxide and adenosine [Dickenson, et al., Neurosci Lett 83, 207-11 (1987); Omote, et al., Brain Res 787, 161-4 (1998); Omote et al., 2000; Liu, et al., J Neurochem 80, 562-70 (2002)]. Following a quiescent interval of 10-15 minutes, a second phase of nociceptive behavior appears, which is associated with local inflammation [Rosland, et al., Pain 42, 235-42 (1990)] and central sensitization [Coderre, et al., J Neurosci 12, 3665-70 (1992)]. […] (2001); Farquuar-Smith, 2002]. […] The effects of PEA in C57BL/6J mice in which the PPARα gene had been deleted by homologous recombination (PPARα^−/−)[Lee, et al., Mol Cell Biol 15, 3012-22 (1995)] were examined to determine whether PPARα contributes to these properties.
Although PPARα is known to regulate the inflammatory response [Devchand, et al., Nature 384, 39-43. (1996); Cabrero, et al., Curr Drug Targets Inflamm Allergy 1, 243-8 (2002); Berger, et al., Annu Rev Med 53, 409-35 (2002); Chinetti, et al., Inflamm Res 49, 497-505 (2000)], its roles in the modulation of acute nociceptive pain remain unexplored. A series of structurally diverse PPAR-α agonists were tested for their ability to reduce pain behavior in an animal model of chemical tissue damage. Injection of formalin into the mouse hind paw evokes a nocifensive behavior consisting of two distinct phases. The first phase results from direct activation of nociceptive fibers and starts immediately after formalin administration, while the second phase develops over a period of approximately 60 min and is associated with local inflammation and central sensitization.
Mice received intraplantar injections of formalin (5% vol/vol, 10 μl) in saline containing polyethylene glycol (5%) and Tween 80 (5%). The duration of paw licking was monitored by an observer for periods of 0-15 min (early or first phase) and 15-45 min (late or second phase) immediately after formalin administration.
Formalin test. Formalin (5%, 10 μl)-induced paw licking was monitored for 0-15 min (first phase) and 15-45 min (second phase) as described (Calignano, et al., Nature 394, 277-81 (1998).

[2] = system: mice; assay: Magnesium sulfate-evoked writhing test; type: in vivo, mouse; details: subcutaneous, Swiss mice
Experimental: Mice received a single dose of magnesium sulfate (120 mg/kg, dissolved in 0.5 ml saline, i.p.) and subsequent writhing episodes were monitored for a period of 30 min thereafter. Drugs were administered in saline/Tween 80/polyethylenglycol, (90/5/5) subcutaneously, 30 minutes before magnesium sulfate.
Next, the effect of PPARα agonists on the nocifensive behavior elicited by intraperitoneal injection of magnesium sulfate in mice, a model of visceral pain (Calignano, et al, Eur J Pharmacol 419, 191-8. (2001)), was explored.
Writhing test. Magnesium sulfate was injected (120 mg-kg^−1 in 0.5 ml saline, i.p.) in 12-h food-deprived mice and measured writhing episodes for 30 min (Calignano, et al, Eur J Pharmacol 419, 191-8. (2001)). Drugs or vehicle were administered by subcutaneous injection 30 min before magnesium sulfate.

[3] = system: mice; assay: Carrageenan-evoked paw edema (acute); type: in vivo, mouse; details: wild-type C57Bl6J; PEA 10 mg-kg^−1 i.p., WY-14643 20 mg-kg^−1 i.p.
Description: (§1) In addition to rapid-onset analgesia, PEA also exerts prolonged anti-inflammatory effects [Benvenuti, et al., Boll Soc It Biol Sper 44, 809-813 (1968); Lambert, et al., Curr Med. Chem. 9, 663-74 (2002)], which are associated with the down-regulation of pro-inflammatory proteins such as nitric oxide synthase (NOS) [Costa, et al., Br J Pharmacol 137, 413-20. (2002)]. Two models of acute inflammation were used to examine whether such effects are mediated through PPARα. First, paw edema was induced in C57B16J wild-type and PPARα^−/− mice by local injection of the irritant, carrageenan [Cirino, et al., Eur J Pharmacol 166, 505-10 (1989)]. […] Next, ear edema was produced in CD1 mice by topical administration of the phorbol ester, 12-O-tetradecanoylphorbol-13-acetate (TPA) [Sheu, et al., J Invest Dermatol., 94-101. (2002)]. […] In a parallel set of experiments, the effects of PEA (20 μg) on TPA-induced edema were tested in C57B16J wild-type and PPARα^−/− mice. […] Together, these findings indicate that PEA reduces acute nociception and inflammation through activation of PPARα.
An inflammatory response was initiated by injecting 2% (w v^−1, 20 μl) λ-carrageenan in sterile saline into mice hind paws using a 27-gauge needle. Drugs were administered 30 minutes before carrageenan (i.p.). Paw edema was measured using a plethysmometer (Ugo Basile, Italy).

[4] = system: mice; assay: TPA-induced ear edema (irritant contact dermatitis); type: in vivo, mouse; details: topical co-application, CD1 mice
Description: as §1
As previous described procedure [Sheu, et al., J Invest Dermatol., 94-101. (2002)], 12-O-tetradecanoylphorbol-13-acetate (TPA) was dissolved in acetone (0.03%, w v^−1) and topically delivered with a pipette to the inner and outer surfaces (10 μl/side) of mice ears. Experimental agents were dissolved in acetone and delivered topically (20 μl/side) 45 minutes and 4 hours after TPA. 18 hours after TPA administration, the mice were euthanized with CO2 and the ears punched (diameter=2 mm) four times. The 4 excised punches of skin were combined and weighed to assess edema.

[5] = target: T1, human CB2 (Homo sapiens, UniProt P34972); assay: CB2 receptor binding, [3H]-WIN-55212-2 displacement in CB2-overexpressing CHO cell membranes
T1 construct: purchased Perkin-Elmer, Boston, Mass; host or cells: CHO cells (membranes)

[6] = system: Swiss mice; assay: Sciatic nerve ligation neuropathy, mechanical and thermal hyperalgesia; type: in vivo, mouse
Experimental: To examine whether PPARα agonists modulate the persistent pain hypersensitivity associated with nerve injury, peripheral neuropathy was produced in mice by partially ligating the left sciatic nerve, a surgical procedure that results in the development of mechanical and thermal hyperalgesia in the operated limb (Bennett et al., Pain, 33, 87 (1988)).
Sciatic nerve ligation was performed essentially following the method of Bennett and Xie (Bennett et al., Pain 33, 87 (1988)). Briefly, male Swiss mice were anesthetized with sodium pentobarbital, the left sciatic nerve was exposed at mid-thigh level through a small incision and one-third to one-half of the nerve thickness was tightly ligated with a silk thread. The wound was closed with a single muscle suture and skin clips, and dusted with streptomycin powder. In sham-operated animals, the nerve was exposed but not ligated.
Mechanical hyperalgesia was determined by measuring paw withdrawal thresholds to an increasing pressure onto the dorsal surface of the paw using an analgesimeter (Ugo Basile, Italy) with a cut-off of 250 g. Withdrawal thresholds were measured on both the ipsilateral paw (inflamed or ligated) and contralateral paw (uninflamed or unligated) 60 min after subcutaneous drug administration.
Thermal hyperalgesia was assessed by the methods of Hargreaves (Hargreaves et al., Pain, 32, 77 (1988)) by measuring the latency to withdraw the hind paws from a focussed beam of radiant heat applied to the plantar surface, using an appropriate apparatus (Ugo Basile, Italy). The cut-off time was set at 30 sec. The mice were habituated to the apparatus for 10-15 min two days prior to the experiment.

[7] = target: T2, human PPARα (Homo sapiens, UniProt Q07869); assay: PPARα transactivation assay (HeLa cells, luciferase reporter); type: cell-based
T2 construct: expressed in transfected cells
T2 sequence (Q07869 239-466 limits assumed): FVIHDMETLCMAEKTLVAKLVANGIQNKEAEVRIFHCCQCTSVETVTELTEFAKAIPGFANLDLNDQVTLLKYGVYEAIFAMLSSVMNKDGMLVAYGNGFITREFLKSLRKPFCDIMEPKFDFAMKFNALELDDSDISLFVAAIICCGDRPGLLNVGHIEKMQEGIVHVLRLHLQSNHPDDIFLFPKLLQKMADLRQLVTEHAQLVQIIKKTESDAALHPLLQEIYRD
Experimental: Transactivation assays were performed as previously described [Fu et al., Nature 425:90-93 (2003)].
PPAR-α transactivation. Plasmids were generated which contained the ligand-binding domain of human PPAR-α (nucleotides 499-1,407) fused to the DNA-binding domain of yeast GAL4 under control of the human cytomegalovirus promoter and to a neomycin resistance gene to provide stable selection with 0.2 mg-ml-1 G418 (Calbiochem). We cultured HeLa cells in Dulbecco's-modified Eagles's medium (DMEM) supplemented with fetal bovine serum (10%), transfected them with Fugene 6 ([…], Roche) containing the pFR-luc plasmid ([…], Stratagene) and, 18 h later, replaced the media with DMEM containing hygromycin (0.1 mg ml−1, Calbiochem). […] Cells were maintained in DMEM containing hygromycin and G418. For transactivation assays, we seeded cells in 6-well plates and incubated them for 7 h in DMEM containing hygromycin and G418, plus appropriate concentrations of test compounds. We used a dual-luciferase reporter assay system (Promega) and an MLX Microtiter® plate luminometer (Dynex) to determine luciferase activity in cell lysates.

[8] = formalin, Swiss mice, SR144528 1 mg-kg^−1

T1 sequence (P34972 whole entry): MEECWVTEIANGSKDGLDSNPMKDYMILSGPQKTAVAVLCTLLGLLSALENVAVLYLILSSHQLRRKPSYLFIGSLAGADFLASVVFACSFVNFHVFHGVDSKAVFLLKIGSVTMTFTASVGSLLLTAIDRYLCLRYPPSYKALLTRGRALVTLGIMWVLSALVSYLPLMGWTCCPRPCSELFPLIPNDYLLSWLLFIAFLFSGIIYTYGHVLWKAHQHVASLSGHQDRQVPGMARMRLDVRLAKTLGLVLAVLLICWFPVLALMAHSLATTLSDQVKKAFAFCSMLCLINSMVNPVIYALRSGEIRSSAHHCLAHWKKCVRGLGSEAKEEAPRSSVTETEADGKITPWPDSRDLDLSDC

CCCCC/C=C\C/C=C\C/C=C\C/C=C\CCCC(=O)N[C@H](C)CO [(R)-methanandamide]
formalin pain in PPARα−/− mice ([1]; PPARα−/− mice, 50 μg i.pl.): reversed

COc1ccc(C(=O)c2c(C)n(CCN3CCOCC3)c3cc(I)ccc23)cc1 [AM630]
effect of CB2 antagonist on antinociceptive effect of GW7647 [1, 8]: did not affect | effect of CB2 antagonist on antinociceptive effect of PEA [1, 8]: did not affect

Cc1cc(SCc2sc(-c3ccc(C(F)(F)F)cc3)nc2C)ccc1OCC(=O)O [GW501516]
phase I and II formalin pain in wild-type mice ([1]; 50 μg i.pl.): inactive

Cc1c(C(=O)NN2CCCCC2)nn(-c2ccc(Cl)cc2Cl)c1-c1ccc(Cl)cc1 [SR141716]
effect on antinociception by anandamide plus PEA or GW7647 ([1]; SR141716 0.1 mg kg^−1 i.v., 10 min before formalin, agonists 0.1 μg/paw each): prevents

Cc1cccc(Nc2cc(Cl)nc(SCC(=O)O)n2)c1C [Wy-14643, [4-chloro-6-(2,3-xylidino)-2-pyrimidinylthio]acetic acid]
first- and second-phase nociception ([1]; Swiss mice, i.pl. together with formalin, GW7647 0.1-50 μg, Wy-14643 50-200 μg, fenofibric acid 100-400 μg): attenuated first- and second-phase nociception in a dose-dependent manner | average half-maximal effective dose (ED50) to reduce first-phase pain ([1]; intraplantar with formalin, Swiss mice, ten experiments): 97.0 µg | average ED50, magnesium sulfate-evoked writhing ([2]; n=8): 25 mg/kg | number of writhing episodes evoked by magnesium sulfate ([2]; GW7647 1-30, Wy-14643 4-80, PEA 1-20 mg-kg^−1): dose-dependently decreased the number of writhing episodes | carrageenan paw edema in wild-type mice [3]: decreased edema | TPA-induced ear edema formation [4]: attenuated | [^3H]-WIN-55212-2 Binding (% of control) ([5]; Concentration 1 μM): 104.2 ± 3.6 % of control | [^3H]-WIN-55212-2 Binding (% of control) ([5]; Concentration 10 μM): 105.6 ± 1.5 % of control

CC1(COc2ccc(CC3SC(=O)NC3=O)cc2)CCCCC1 (stereo not drawn) [ciglitazone]
phase I and II formalin pain in wild-type mice ([1]; 50 μg i.pl.): inactive

NCC1(CC(=O)O)CCCCC1 [gabapentin]
mechanical and thermal pain thresholds in the non-ligated paw of neuropathic mice ([6]; data not shown): did not affect | neuropathic hypersensitivity (mechanical and thermal pain thresholds), ligated limb ([6]; single s.c. dose day 7 and 14 after surgery, 60 min before test, PEA, GW7647 30 mg-kg^−1, gabapentin 60 mg-kg^−1): comparable in magnitude

CCCCCCCCCCCCCCCC(=O)O [palmitic acid]
PPARα activation ([7]; HeLa cells, identical conditions): no effect

SR144528
effect of CB2 antagonist on antinociceptive effect of GW7647 [1, 8]: reverse | effect of CB2 antagonist on antinociceptive effect of PEA [1, 8]: blocked | effect of CB2 antagonist on antinociceptive effect of Wy-14643 ([1]; formalin, Swiss mice, Wy-14643 100 μg i.pl., SR144528 1 mg-kg^−1): reverse | antagonism of PEA-induced PPARα activation in vitro ([7]; PEA 10 μM, SR144528 0-5 μM): did not significantly antagonize
